Measured values taken from patent US12162890B2 (Novartis AG, priority 2015, dated 2024).

biological target: HEK293 cells with stable expression of the GRIN1 gene and tetracycline-inducible expression of the GRIN2B gene (NMDA receptor, NR2B) (Homo sapiens, UniProt Q13224); assay: Fluo-8 Ca2+ flux assay: reversal of Ro 25-6981-mediated suppression of the Ca2+ response to co-agonist (glutamate/glycine); type: cell-based; conditions: reversal of the Ro 25-6981 suppression of the Ca2+ response to co-agonist (glutamate/glycine); also: test concentration or dose not given here
Sequence (Q13224 27-1484, other chains not shown): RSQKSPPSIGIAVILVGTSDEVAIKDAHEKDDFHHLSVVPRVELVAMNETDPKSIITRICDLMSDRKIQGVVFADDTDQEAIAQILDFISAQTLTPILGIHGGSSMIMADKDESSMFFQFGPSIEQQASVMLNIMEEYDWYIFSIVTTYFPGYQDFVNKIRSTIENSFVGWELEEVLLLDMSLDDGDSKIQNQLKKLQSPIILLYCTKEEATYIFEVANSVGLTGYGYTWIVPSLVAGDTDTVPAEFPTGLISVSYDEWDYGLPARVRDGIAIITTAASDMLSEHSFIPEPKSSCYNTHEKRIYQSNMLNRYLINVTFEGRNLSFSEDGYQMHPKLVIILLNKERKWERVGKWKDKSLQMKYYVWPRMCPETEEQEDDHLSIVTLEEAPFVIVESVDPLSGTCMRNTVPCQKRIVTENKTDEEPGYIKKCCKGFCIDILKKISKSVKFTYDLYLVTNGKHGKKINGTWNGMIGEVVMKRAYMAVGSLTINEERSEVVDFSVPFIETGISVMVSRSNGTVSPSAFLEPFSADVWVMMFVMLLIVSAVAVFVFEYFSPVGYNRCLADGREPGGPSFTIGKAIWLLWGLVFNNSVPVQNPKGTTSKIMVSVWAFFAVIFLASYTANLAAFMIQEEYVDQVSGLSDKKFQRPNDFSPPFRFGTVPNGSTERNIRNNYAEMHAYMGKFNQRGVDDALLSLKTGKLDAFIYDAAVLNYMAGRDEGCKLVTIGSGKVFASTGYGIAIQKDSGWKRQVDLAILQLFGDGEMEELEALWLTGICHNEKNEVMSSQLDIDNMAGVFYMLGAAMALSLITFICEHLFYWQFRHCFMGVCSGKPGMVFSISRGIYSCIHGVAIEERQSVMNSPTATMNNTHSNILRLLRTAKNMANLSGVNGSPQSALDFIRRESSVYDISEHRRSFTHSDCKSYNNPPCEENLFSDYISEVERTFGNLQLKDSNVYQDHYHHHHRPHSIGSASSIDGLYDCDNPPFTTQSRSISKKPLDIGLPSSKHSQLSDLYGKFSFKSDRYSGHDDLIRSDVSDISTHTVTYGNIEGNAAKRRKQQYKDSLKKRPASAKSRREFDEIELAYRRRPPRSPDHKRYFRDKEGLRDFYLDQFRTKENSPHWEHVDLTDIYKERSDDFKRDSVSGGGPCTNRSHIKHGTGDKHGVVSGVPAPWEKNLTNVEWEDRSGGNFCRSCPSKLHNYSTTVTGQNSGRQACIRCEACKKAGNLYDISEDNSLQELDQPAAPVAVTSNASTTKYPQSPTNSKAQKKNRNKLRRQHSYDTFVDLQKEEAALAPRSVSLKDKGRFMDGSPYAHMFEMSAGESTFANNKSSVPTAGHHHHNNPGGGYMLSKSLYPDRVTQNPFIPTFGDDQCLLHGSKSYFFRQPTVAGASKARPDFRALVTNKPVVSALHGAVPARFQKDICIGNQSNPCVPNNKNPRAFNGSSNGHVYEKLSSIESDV

SMILES | Response Recovered (%)
O=C(Cn1ccc2scc(-c3cnc(Cl)c(C(F)(F)F)c3)c2c1=O)N1CCC(F)C1 (stereo not drawn) [Example 25, 3-(6-chloro-5-(trifluoromethyl)pyri-din-3-yl)-5-(2-(3-fluoropyrrolidin-1-yl)-2-oxoethyl)thieno[3,2-c]pyridin-4(5H)-one] | 28%
O=C(Cn1ccc2scc(-c3ccc(F)c(C(F)(F)F)c3)c2c1=O)N1CC[C@H](F)C1 [Example 26, (S)-3-(4-fluoro-3-(trifluoromethyl)phen-yl)-5-(2-(3-fluoropyrrolidin-1-yl)-2-oxoethyl)thieno[3,2-c]pyridin-4(5H)-one] | 103%
O=C(Cn1ccc2scc(-c3ccc(F)c(C(F)(F)F)c3)c2c1=O)N1CC[C@@H](F)C1 [Example 27, (R)-3-(4-fluoro-3-(trifluoromethyl)phen-yl)-5-(2-(3-fluoropyrrolidin-1-yl)-2-oxoethyl)thieno[3,2-c]pyridin-4(5H)-one] | 81%
O=C(Cn1ccc2scc(-c3ccc(F)c(C(F)(F)F)c3)c2c1=O)N1C[C@@H](F)[C@@H](F)C1 [Example 28, 5-(2-((3S,4R)-3,4-difluoropyrrolidin-1-yl)-2-oxoethyl)-3-(4-fluoro-3-(trifluoromethyl)phen-nyl)thieno[3,2-c]pyridin-4(5H)-one] | 94%
O=C(Cn1ccc2scc(-c3ccc(Cl)c(Cl)c3)c2c1=O)N1CC[C@@H](F)C1 [Example 29, (R)-3-(3,4-dichlorophenyl)-5-(2-(3-fluoropyrrolidin-1-yl)-2-oxoethyl)thieno[3,2-c]pyridin-4(5H)-one] | 104%
O=C(Cn1ccc2scc(-c3ccc(Cl)c(Cl)c3)c2c1=O)N1CC[C@H](F)C1 [Example 30, (S)-3-(3,4-dichlorophenyl)-5-(2-(3-fluoropyrrolidin-1-yl)-2-oxoethyl)thieno[3,2-c]pyridin-4(5H)-one] | 96%
O=C(Cn1ccc2scc(-c3ccc(Cl)s3)c2c1=O)N1CCC(F)C1 (stereo not drawn) [Example 31, 3-(5-chlorothiophen-2-yl)-5-(2-(3-fluoropyrrolidin-1-yl)-2-oxoethyl)thieno[3,2-c]pyridin-4(5H)-one] | 34%
O=C(Cn1ccc2scc(-c3ccc(F)c(C(F)(F)F)c3)c2c1=O)N1CC(F)C1 [Example 32, 3-(4-fluoro-3-(trifluoromethyl)phen-yl)-5-(2-(3-fluoroazetidin-1-yl)-2-oxoethyl)thieno[3,2-c]pyridin-4(5H)-one] | 60%
O=C(Cn1ccc2scc(-c3ccc(Cl)c(Cl)c3)c2c1=O)N1CC(F)C1 [Example 33, 3-(3,4-dichlorophenyl)-5-(2-(3-fluoroazetidin-1-yl)-2-oxoethyl)thieno[3,2-c]pyridin-4(5H)-one] | 54%
O=C(Cn1ccc2scc(-c3ccc(Cl)c(C(F)(F)F)c3)c2c1=O)N1CC(F)C1 [Example 34, 3-(4-chloro-3-(trifluoromethyl)phen-yl)-5-(2-(3-fluoroazetidin-1-yl)-2-oxoethyl)thieno[3,2-c]pyridin-4(5H)-one] | 79%
O=C(Cn1ccc2scc(-c3cnc(Cl)c(Cl)c3)c2c1=O)N1CC(F)C(F)C1 (stereo not drawn) [Example 35, 3-(5,6-dichloropyridin-3-yl)-5-(2-(3,4-difluoropyrrolidin-1-yl)-2-oxoethyl)thieno[3,2-c]pyridin-4(5H)-one] | 28%
O=C(Cn1ccc2scc(-c3cnc(Cl)c(C(F)(F)F)c3)c2c1=O)N1CC(F)C(F)C1 (stereo not drawn) [Example 36, 3-(6-chloro-5-(trifluoromethyl)pyri-din-3-yl)-5-(2-(3,4-difluoropyrrolidin-1-yl)-2-oxoethyl)thieno[3,2-c]pyridin-4(5H)-one] | 54%
O=C(Cn1ccc2scc(-c3cnc(F)c(Cl)c3)c2c1=O)N1CCC(F)C1 (stereo not drawn) [Example 37, 3-(5-chloro-6-fluoropyridin-3-yl)-5-(2-(3-fluoropyrrolidin-1-yl)-2-oxoethyl)thieno[3,2-c]pyridin-4(5H)-one] | 22%
O=C(Cn1ccc2scc(-c3cnc(F)c(Cl)c3)c2c1=O)N1CC(F)C(F)C1 (stereo not drawn) [Example 38, 3-(5-chloro-6-fluoropyrridin-3-yl)-5-(2-(3,4-difluoropyrrolidin-1-yl)-2-oxoethyl)thieno[3,2-c]pyridin-4(5H)-one] | 18%
CC1(F)CN(C(=O)Cn2ccc3scc(-c4ccc(F)c(Cl)c4)c3c2=O)C1 [Example 39, 3-(3-chloro-4-fluorophenyl)-5-(2-(3-fluoro-3-methylazetidin-1-yl)-2-oxoethyl)thieno[3,2-c]pyridin-4(5H)-one] | 140%
O=C(Cn1ccc2scc(-c3ccc(F)c(Cl)c3)c2c1=O)N1CC[C@H](F)C1 [Example 40, (S)-3-(3-chloro-4-fluorophenyl)-5-(2-(3-fluoropyrrolidin-1-yl)-2-oxoethyl)thieno[3,2-c]pyridin-4(5H)-one] | 46%
O=C(Cn1ccc2scc(-c3ccc(F)c(Cl)c3)c2c1=O)N1CC[C@@H](F)C1 [Example 41, (R)-3-(3-chloro-4-fluorophenyl)-5-(2-(3-fluoropyrrolidin-1-yl)-2-oxoethyl)thieno[3,2-c]pyridin-4(5H)-one] | 77%

SMILES | Response Recovered (%)
CC1(F)CN(C(=O)Cn2ccc3scc(-c4ccc(Cl)c(Cl)c4)c3c2=O)C1 [Example 42, 3-(3,4-dichlorophenyl)-5-(2-(3-fluoro-3-methylazetidin-1-yl)-2-oxoethyl)thieno[3,2-c]pyridin-4(5H)-one] | 150%
CC1(F)CN(C(=O)Cn2ccc3scc(-c4ccc(F)c(C(F)(F)F)c4)c3c2=O)C1 [Example 43, 3-(4-fluoro-3-(trifluoromethyl)phen-yl)-5-(2-(3-fluoro-3-methylazetidin-1-yl)-2-oxoethyl)thieno[3,2-c]pyridin-4(5H)-one] | 160%
O=C(Cn1ccc2scc(-c3ccc(F)c(Cl)c3)c2c1=O)N1CC(F)(C2CC2)C1 [Example 44, 3-(3-chloro-4-fluorophenyl)-5-(2-(3-cyclopropyl-3-fluoroazetidin-1-yl)-2-oxoethyl)thieno[3,2-c]pyridin-4(5H)-one] | 63%
O=C(Cn1ccc2scc(-c3ccc(F)c(C(F)(F)F)c3)c2c1=O)N1CC(F)(C2CC2)C1 [Example 45, 5-(2-(3-cyclopropyl-3-fluoroazetidin-1-yl)-2-oxoethyl)-3-(4-fluoro-3-(trifluoromethyl)phen-yl)thieno[3,2-c]pyridin-4(5H)-one] | 12%
O=C(Cn1ccc2scc(-c3ccc(F)c(Cl)c3)c2c1=O)N1CCC1 [Example 46, 5-(2-(azetidin-1-yl)-2-oxoethyl)-3-(3-chloro-4-fluorophenyl)thieno[3,2-c]pyridin-4(5H)-one] | 26%
O=C(Cn1ccc2scc(-c3ccc(F)c(Cl)c3)c2c1=O)N1CC(F)C1 [Example 47, 3-(3-chloro-4-fluorophenyl)-5-(2-(3-fluoroazetidin-1-yl)-2-oxoethyl)thieno[3,2-c]pyridin-4(5H)-one] | 23%
CC1CN(C(=O)Cn2ccc3scc(-c4ccc(F)c(Cl)c4)c3c2=O)C1 [Example 48, 3-(3-chloro-4-fluorophenyl)-5-(2-(3-methylazetidin-1-yl)-2-oxoethyl)thieno[3,2-c]pyridin-4(5H)-one] | 67%
O=C(Cn1ccc2scc(-c3ccc(Cl)c(Cl)c3)c2c1=O)N1CC(F)(C2CC2)C1 [Example 49, 5-(2-(3-cyclopropyl-3-fluoroazetidin-1-yl)-2-oxoethyl)-3-(3,4-dichlorophenyl)thien-o[3,2-c]pyridin-4(5H)-one] | 26%
CCC1(F)CN(C(=O)Cn2ccc3scc(-c4ccc(Cl)c(Cl)c4)c3c2=O)C1 [Example 50, 3-(3,4-dichlorophenyl)-5-(2-(3-ethyl-3-fluoroazetidin-1-yl)-2-oxoethyl)thieno[3,2-c]pyridin-4(5H)-one] | 96%
CCC1(F)CN(C(=O)Cn2ccc3scc(-c4ccc(F)c(C(F)(F)F)c4)c3c2=O)C1 [Example 51, 5-(2-(3-ethyl-3-fluoroazetidin-1-yl)-2-oxoethyl)-3-(4-fluoro-3-(trifluoromethyl)phen-yl)thieno[3,2-c]pyridin-4(5H)-one] | 57%
CCC1(F)CN(C(=O)Cn2ccc3scc(-c4ccc(F)c(Cl)c4)c3c2=O)C1 [Example 52, 3-(3-chloro-4-fluorophenyl)-5-(2-(3-ethyl-3-fluoroazetidin-1-yl)-2-oxoethyl)thieno[3,2-c]pyridin-4(5H)-one] | 130%
O=C(Cn1ccc2scc(-c3ccc(Cl)c(Cl)c3)c2c1=O)N1CC(F)(c2ccccc2)C1 [Example 53, 3-(3,4-dichlorophenyl)-5-(2-(3-fluoro-3-phenylazetidin-1-yl)-2-oxoethyl)thieno[3,2-c]pyridin-4(5H)-one] | 24%
O=C(Cn1ccc2scc(-c3ccc(F)c(C(F)(F)F)c3)c2c1=O)N1CC(F)(c2ccccc2)C1 [Example 54, 3-(4-fluoro-3-(trifluoromethyl)phen-yl)-5-(2-(3-fluoro-3-phenylazetidin-1-yl)-2-oxoethyl)thieno[3,2-c]pyridin-4(5H)-one] | 17%
CC1(O)CN(C(=O)Cn2ccc3scc(-c4ccc(F)c(C(F)(F)F)c4)c3c2=O)C1 [Example 55, 3-(4-fluoro-3-(trifluoromethyl)phen-yl)-5-(2-(3-hydroxy-3-methylazetidin-1-yl)-2-oxoethyl)thieno[3,2-c]pyridin-4(5H)-one] | 14%
O=C(Cn1ccc2scc(-c3ccc(F)c(Cl)c3)c2c1=O)NCC(F)(F)F [Example 56, 2-(3-(3-chloro-4-fluorophenyl)-4-oxothieno[3,2-c]pyridin-5(4H)-yl)-N-(2,2,2-trifluoroethyl)aceta-mide] | 7.3%
O=C(Cn1ccc2scc(-c3ccc(F)c(Cl)c3)c2c1=O)N1CC(F)(c2ccccc2)C1 [Example 57, 3-(3-chloro-4-fluorophenyl)-5-(2-(3-fluoro-3-phenylazetidin-1-yl)-2-oxoethyl)thieno[3,2-c]pyridin-4(5H)-one] | 15%
